5 molecules from patent publication US20260200943A1, “COMPOUNDS FOR TREATING CANCER” (Genesis Therapeutics, Inc., priority 2022, published 2026) can be followed below.

Common to all, as to format: biochemical
Assay [1] deals with T1, CDK2/CyclinA2 (Homo sapiens, UniProt P24941).
T1 construct: Wild-type, full length CDK2 in complex with wildtype, full length CyclinA2: Carna Cat #04-103; purchased Carna 04-103
In words: CDK2/CyclinA2 ChEF Assay (Table A). Conditions: for Ki: 10xKm, read-out: CDK2/CCNA2 ChEF 10xKm Ki: Average Ki. The method, then: 500 nL of 50× compound in 100% DMSO is added to a 384-well low volume, white assay plate. 19.5 μL of 1.3×CDK2/CyclinA2 (Wild-type, full length CDK2 in complex with wildtype, full length CyclinA2: Carna Cat #04-103 diluted in assay buffer (50 mM Hepes, 0.01% Brij-35, 10 mM MgCl2, 0.5 mM EGTA, 1% Glycerol, and 1.2 mM DTT) is added to the plates on top of the compound and pre-incubated for 30 minutes at room temperature. Following the incubation, 5 μL of 5×Sox-chromophore (CSox) labeled peptide substrate (AQT0255, AssayQuant) & ATP diluted in assay buffer is added to the plate to initiate the reaction. The assay is incubated at room temperature for 45 min after initiation. The CSox peptide substrate is phosphorylated by CDK2/A2 upon ATP hydrolysis.
(§1) The fluorescent intensity measurement of the assay plate for all assays described above is read on a microplate reader once the assay is initiated and again at the completion of the assay. Phosphorylation of the CSox-based peptide substrate sensor results in an immediate increase in fluorescence. These raw fluorescence intensity values are normalized to calculate percent inhibition, which are fit to a four-parameter logistic curve and IC50 values are calculated. IC50 values are converted to Ki using substrate, KM^app values, and the Cheng-Prusoff equation.

Assay [2] has as its target CDK9/CyclinT1 (Homo sapiens, UniProt P50750). Description: CDK9/CyclinT1 Mobility Shift Assay (Caliper, Table B). Set-up: Wild-type, full length CDK9 in complex with wildtype, CyclinT1 (1-259): Biortus Cat #BP480/792/691; purchased Biortus BP480/792/691. Conditions: read-out: CDK9/Cyclin T1 Caliper Ki: Average Ki. The procedure, abridged:
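Full-length wild-type CDK9 with CyclinT1 (1-259) and fluorescent peptide substrate, pre-incubated with compound 30 min at room temperature in Hepes/Brij-35/MgCl2/EGTA/BSA/DTT buffer; ATP added, 30 min reaction, EDTA stop. Substrate/product separated by microfluidic mobility shift; percent inhibition fit to four-parameter curve, IC50 converted to Ki by Cheng-Prusoff using Kmapp.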

The target of assay [3] is T1, CDK2/CyclinA2. Description: CDK2/Cyclin A2 Mobility Shift Assay (Caliper, Table B). The settings on record: for Ki: Caliper mobility shift, 10xKm, read-out: CDK2/CCNA2 Caliper 10xKm Ki: Average Ki. Here is the method: 10 nL of 2000× compound in 100% DMSO is added to a 384-well polypropylene assay plate. 15 μL of 1.3×CDK2/A2 and 1.3× fluorescent substrate (Wild-type, full length CDK2 in complex with wildtype, full length CyclinA2: Carna Cat #04-103 and FL-Peptide 18: PerkinElmer Cat #760362) diluted in kinase buffer (50 mM Hepes, 0.01% Brij-35, 10 mM MgCl2, 1 mM EGTA, 0.05% BSA, and 2 mM DTT) is added to the plates on top of the compound, mixed, and pre-incubated for 30 minutes at room temperature. The fluorescently labeled peptide substrate is phosphorylated by CDK2/A2 upon ATP hydrolysis. Following the incubation, 5 μL of 4×ATP diluted in kinase buffer is added to the plate to initiate the reaction. Following the 30-minute incubation, the reaction is stopped by adding 75 μL of stopping buffer containing 0.5 M EDTA.
The assay plate is then read on a Lab Chip EZ Reader which separates the fluorescently labeled substrate and product peptides through a mobility difference. The phosphorylation of the substrate imparts a negative charge, which allows differences in separation as both are pulled through the microfluidic chip. The ratio of substrate and product values are used to generate percent conversion. These raw percent conversion values are normalized to calculate percent inhibition, which are fit to a four-parameter logistic curve and IC50 values are calculated. IC50 values are converted to Ki through using substrate and Km^app values, and the Cheng-Prusoff equation.

Assay [4] concerns the target T2, CDK1/CyclinB1 (Homo sapiens, UniProt P06493).
T2 construct: Wild-type, full length CDK1 in complex with wildtype, full length CyclinB1: Carna Cat #04-102; purchased Carna 04-102
In words: CDK1/CyclinB1 ChEF Assay (Table A).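 Further: Ki reported in nM.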 Conditions: read-out: CDK1/CCNB1 ChEF Ki: Average Ki. Here is the method: 500 nL of 50× compound in 100% DMSO is added to a 384-well low volume, white assay plate. 19.5 μL of 1.3×CDK1/CyclinB1 (Wild-type, full length CDK1 in complex with wildtype, full length CyclinB1: Carna Cat #04-102) diluted in assay buffer (50 mM Hepes, 0.01% Brij-35, 10 mM MgCl2, 0.5 mM EGTA, 1% Glycerol, and 1.2 mM DTT) is added to the plates on top of the compound and pre-incubated for 30 minutes at room temperature. Following the incubation, 5 μL of 5×Sox-chromophore (CSox) labeled peptide substrate (AQT0297, AssayQuant) & ATP diluted in assay buffer is added to the plate to initiate the reaction. The assay is incubated at room temperature for 30 min after initiation. The CSox peptide substrate is phosphorylated by CDK1/B1 upon ATP hydrolysis.
as §1

Where only a bound is given, the exact number is not on record here.

Chain of CDK9/CyclinT1 (P50750 whole entry): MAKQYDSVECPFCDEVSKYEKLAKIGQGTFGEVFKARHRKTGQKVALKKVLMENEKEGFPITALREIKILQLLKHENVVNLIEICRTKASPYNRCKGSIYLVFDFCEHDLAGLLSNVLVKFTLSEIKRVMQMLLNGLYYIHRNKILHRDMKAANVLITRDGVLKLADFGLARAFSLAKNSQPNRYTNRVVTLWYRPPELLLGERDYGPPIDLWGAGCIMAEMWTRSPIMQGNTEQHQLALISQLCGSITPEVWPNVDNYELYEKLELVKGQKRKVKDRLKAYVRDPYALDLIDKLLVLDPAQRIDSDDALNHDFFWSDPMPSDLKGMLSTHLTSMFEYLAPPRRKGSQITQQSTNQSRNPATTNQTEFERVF
Chain of CDK9/CyclinT1 (O60563 1-259 partner limits assumed): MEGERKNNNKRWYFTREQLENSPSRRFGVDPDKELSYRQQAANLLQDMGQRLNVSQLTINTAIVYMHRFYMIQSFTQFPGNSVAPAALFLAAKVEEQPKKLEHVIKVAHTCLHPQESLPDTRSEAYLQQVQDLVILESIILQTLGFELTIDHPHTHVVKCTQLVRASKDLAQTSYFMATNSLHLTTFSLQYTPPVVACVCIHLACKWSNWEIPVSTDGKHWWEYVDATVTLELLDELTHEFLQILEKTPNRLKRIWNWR
T2 sequence (P06493 whole entry): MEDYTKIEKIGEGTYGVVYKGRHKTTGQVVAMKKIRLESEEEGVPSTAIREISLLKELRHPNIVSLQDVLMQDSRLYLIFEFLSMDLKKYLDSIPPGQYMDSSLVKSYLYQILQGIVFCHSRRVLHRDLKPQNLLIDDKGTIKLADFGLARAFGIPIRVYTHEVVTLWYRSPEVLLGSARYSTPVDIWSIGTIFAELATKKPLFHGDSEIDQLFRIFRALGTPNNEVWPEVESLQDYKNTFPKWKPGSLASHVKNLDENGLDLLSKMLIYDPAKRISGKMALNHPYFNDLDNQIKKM
T2 sequence (P14635 whole entry partner): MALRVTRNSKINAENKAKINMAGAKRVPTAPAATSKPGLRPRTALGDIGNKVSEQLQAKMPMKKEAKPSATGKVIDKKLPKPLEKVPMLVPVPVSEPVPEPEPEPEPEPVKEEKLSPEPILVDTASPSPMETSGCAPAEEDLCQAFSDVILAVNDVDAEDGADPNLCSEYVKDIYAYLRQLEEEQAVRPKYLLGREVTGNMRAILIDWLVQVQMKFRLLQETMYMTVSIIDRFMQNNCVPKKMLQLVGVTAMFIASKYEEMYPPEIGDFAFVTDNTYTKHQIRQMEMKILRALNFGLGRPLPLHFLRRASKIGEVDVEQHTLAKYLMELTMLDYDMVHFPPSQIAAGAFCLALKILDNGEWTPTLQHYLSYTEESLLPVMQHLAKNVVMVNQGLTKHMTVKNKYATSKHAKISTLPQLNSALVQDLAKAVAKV

For the molecule `O=C1NCCCNS(=O)(=O)c2ccc(c(F)c2)Nc2cc([nH]n2)[C@H]2CC[C@H](C2)O1` [Compound 98, (1^1S, 1^3R,Z)-4^2-fluoro-2^1H-12-oxa-5-thia-3,6, 10-triaza-2(5,3)-pyrazola-4(1,4)-benzena-1(1,3)-cyclopentanacyclododecaphan-11-one 5,5-dioxide], in assay [1], the Ki fell in the range of 25 to 100 nM and the “CDK2/CCNA2 ChEF 10xKm Ki: CDK2/A2 Selectivity over CDK9/T1” value is “B (5≤B<10)”. For the same molecule, the Ki in assay [2] was no less than 100 nM. For the same molecule, in assay [3], the Ki fell in the range of 25 to 100 nM, the “CDK2/CCNA2 Caliper 10xKm Ki: CDK2/A2 Selectivity over CDK1/B1” value is on record as “A (A>10)” and the “CDK2/CCNA2 Caliper 10xKm Ki: CDK2/A2 Selectivity over CDK9” value is given as “A (A>10)”. In addition, the Ki in assay [4] is no less than 100 nM.
As to `O=C1NCCCCNS(=O)(=O)c2ccc(c(F)c2)Nc2cc([nH]n2)[C@H]2CC[C@H](C2)O1` [Compound 99, (1^1S, 1^3R,Z)-4^2-fluoro-2^1H-13-oxa-5-thia-3,6,11-triaza-2(5,3)-pyrazola-4(1,4)-benzena-1(1,3)-cyclopentanacyclotridecaphan-12-one 5,5-dioxide], in assay [1], the Ki is less than 1 nM and the “CDK2/CCNA2 ChEF 10xKm Ki: CDK2/A2 Selectivity over CDK9/T1” value is listed as “A (A>10)”. Further, the Ki in assay [2] was no less than 100 nM. In assay [3], the Ki is less than 1 nM, the “CDK2/CCNA2 Caliper 10xKm Ki: CDK2/A2 Selectivity over CDK1/B1” value is reported as “A (A>10)”, the “CDK2/CCNA2 Caliper 10xKm Ki: CDK2/A2 Selectivity over CDK6/D3” value is “A (A>10)” and the “CDK2/CCNA2 Caliper 10xKm Ki: CDK2/A2 Selectivity over CDK9” value is on record as “A (A>10)”. Moreover, in assay [4], the Ki lay within 1 to 25 nM.
Regarding `CN1CCNC(=O)O[C@@H]2CC[C@@H](C2)c2cc(n[nH]2)Nc2ccc(cc2F)S(=O)(=O)NCC1` [Compound 100, (1^1S, 1^3R,Z)-4^2-fluoro-9-methyl-2^1H-14-oxa-5-thia-3,6,9,12-tetraaza-2(5,3)-pyrazola-4(1,4)-benzena-1(1,3)-cyclopentanacyclotetradecaphan-13-one 5,5-dioxide], in assay [1], the Ki is 1 to 25 nM and the “CDK2/CCNA2 ChEF 10xKm Ki: CDK2/A2 Selectivity over CDK9/T1” value is “A (A>10)”. In assay [2], the Ki is no less than 100 nM. For the same molecule, in assay [3], the Ki lay within 1 to 25 nM, the “CDK2/CCNA2 Caliper 10xKm Ki: CDK2/A2 Selectivity over CDK1/B1” value was “A (A>10)” and the “CDK2/CCNA2 Caliper 10xKm Ki: CDK2/A2 Selectivity over CDK9” value is “A (A>10)”. For the same molecule, the Ki in assay [4] lay within 25 to 100 nM.
For the molecule `CC1(C)CCCNS(=O)(=O)c2ccc(c(F)c2)Nc2cc([nH]n2)[C@H]2CC[C@H](C2)OC(=O)N1` [Compound 101, (1^1S,1^3R,Z)-4^2-fluoro-10,10-dimethyl-2^1H-13-oxa-5-thia-3,6,11-triaza-2(5,3)-pyrazola-4(1,4)-benzena-1(1,3)-cyclopentanacyclotridecaphan-12-one 5,5-dioxide], in assay [1], the Ki is 1 to 25 nM and the “CDK2/CCNA2 ChEF 10xKm Ki: CDK2/A2 Selectivity over CDK9/T1” value was “A (A>10)”. For the same molecule, the Ki in assay [2] was no less than 100 nM. In addition, in assay [3], the Ki fell in the range of 1 to 25 nM, the “CDK2/CCNA2 Caliper 10xKm Ki: CDK2/A2 Selectivity over CDK1/B1” value was “A (A>10)” and the “CDK2/CCNA2 Caliper 10xKm Ki: CDK2/A2 Selectivity over CDK9” value is “A (A>10)”. Besides, the Ki in assay [4] is 25 to 100 nM.
With `O=C1NCC=CCNS(=O)(=O)c2ccc(c(F)c2)Nc2cc([nH]n2)[C@H]2CC[C@H](C2)O1` [Compound 102, (1^1S,1^3R,2^4Z)-4^2-fluoro-2^1H-13-oxa-5-thia-3,6,11-triaza-2(5,3)-pyrazola-4(1,4)-benzena-1(1,3)-cyclopentanacyclotridecaphan-8-en-12-one 5,5-dioxide], in assay [1], the Ki is less than 1 nM and the “CDK2/CCNA2 ChEF 10xKm Ki: CDK2/A2 Selectivity over CDK9/T1” value is “A (A>10)”. Also, the Ki in assay [2] is no less than 100 nM. Further, in assay [3], the Ki is less than 1 nM, the “CDK2/CCNA2 Caliper 10xKm Ki: CDK2/A2 Selectivity over CDK1/B1” value was “A (A>10)”, the “CDK2/CCNA2 Caliper 10xKm Ki: CDK2/A2 Selectivity over CDK6/D3” value is given as “A (A>10)” and the “CDK2/CCNA2 Caliper 10xKm Ki: CDK2/A2 Selectivity over CDK9” value is given as “A (A>10)”. Further, in assay [4], the Ki lay within 1 to 25 nM.
